Experimental data taken from patent publication US6391827B1, “Pyrrolic compounds having a high herbicidal activity and their agronomic use” (Isagro Ricerca S.r.l., priority 1999, dated 2002).

Tests used:
Format in all cases: in vivo
Set-up in all cases: key: 0=0-20% of damage; 1=21-40%; 2=41-60%; 3=61-80%; 4=81-95%; 5=death of the plant treated
Conditions in all cases: 150 g/hectare, evaluated 21 days after treatment, damage vs blank
Abutilon theofrasti (AT) = experiment: Herbicidal activity in post-emergence, Abutilon theofrasti
Method: (§1) The herbicidal activity of the compounds of the invention was evaluated with respect to both monocotyledon and dicotyledon weeds, in post- and pre-emergence treatment.
(§2) The evaluation tests were carried out according to the following operative procedures.
(§3) Vases (diameter over 10 cm, height 10 cm) containing sandy medium were prepared. One of the following weeds was planted in each of them: Abutilon theofrasti (AT), Amarantus retraflexus (AR), Chenopodium album (CA), Convolvulus sepium (CS), Portulaca oleracea (PO), Solanum nigrum (SN), Ipomea purpurea (IP).
(§4) Water was added to each vase in a suitable quantity for a good germination of the seeds. The vases were divided into two groups, each group containing at least 5 vases for each weed.
(§5) The first group was not treated with herbicide and was used as a comparison (blank).
(§6) The second group of vases was treated fifteen days after sowing (i.e. when the small weed plants, depending on the species, were 10-15 cm high) with a hydroacetone dispersion at 20% by volume of acetone of the product to be evaluated (herbicidal activity in post-emergence). All the vases were kept under observation in a conditioned environment under the following environmental conditions:
(§7) light intensity: 10000 lux
(§8) Every two days, the vases were uniformly watered to ensure a sufficient degree of humidity for a good development of the plants.
(§9) 21 days after treatment, the herbicidal activity was evaluated on the basis of the following scale of values referring to the percentage of damage measured on the treated plants with respect to those not treated (blank): […]

[1] = system: Amarantus retraflexus (AR); experiment: Herbicidal activity in post-emergence, Amarantus retraflexus
Method: as §1, §2, §3, §4, §5, §6, §7, §8, §9

Chenopodium album (CA) = experiment: Herbicidal activity in post-emergence, Chenopodium album
Method: as §1, §2, §3, §4, §5, §6, §7, §8, §9

Convolvulus sepium (CS) = experiment: Herbicidal activity in post-emergence, Convolvulus sepium
Method: as §1, §2, §3, §4, §5, §6, §7, §8, §9

Portulaca oleracea (PO) = experiment: Herbicidal activity in post-emergence, Portulaca oleracea
Method: as §1, §2, §3, §4, §5, §6, §7, §8, §9

Solanum nigrum (SN) = experiment: Herbicidal activity in post-emergence, Solanum nigrum
Method: as §1, §2, §3, §4, §5, §6, §7, §8, §9

Ipomea purpurea (IP) = experiment: Herbicidal activity in post-emergence, Ipomea purpurea
Method: as §1, §2, §3, §4, §5, §6, §7, §8, §9

CCOC(=O)COc1cc(-c2c(Br)c(C(F)(F)F)n(C)c2Br)c(F)cc1Cl [Compound 4, ethyl 2-chloro-5-(2,4-dibromo-1-methyl-5-trifluoromethylpyrrol-3-yl)-4-fluorophenoxy acetate]
5: Herbicidal activity in post-emerqence, AT (Abutilon theofrasti (AT)) | Herbicidal activity in post-emerqence, AR [1] | Herbicidal activity in post-emerqence, CA (Chenopodium album (CA)) | Herbicidal activity in post-emerqence, CS (Convolvulus sepium (CS)) | Herbicidal activity in post-emerqence, PO (Portulaca oleracea (PO)) | Herbicidal activity in post-emerqence, SN (Solanum nigrum (SN)) | Herbicidal activity in post-emerqence, IP (Ipomea purpurea (IP))

C#CCOc1cc(-c2c(Br)c(C(F)(F)F)n(C)c2Br)c(F)cc1Cl [Compound 5, 3-[4-chloro-2-fluoro-5-(2-propinyloxy)phenyl]-2,4-dibromo-1-methyl-5-trifluoromethylpyrrole]
5: Herbicidal activity in post-emerqence, AT (Abutilon theofrasti (AT)) | Herbicidal activity in post-emerqence, AR [1] | Herbicidal activity in post-emerqence, CA (Chenopodium album (CA)) | Herbicidal activity in post-emerqence, CS (Convolvulus sepium (CS)) | Herbicidal activity in post-emerqence, PO (Portulaca oleracea (PO)) | Herbicidal activity in post-emerqence, SN (Solanum nigrum (SN)) | Herbicidal activity in post-emerqence, IP (Ipomea purpurea (IP))

C#CCOc1cc(-c2c(Cl)c(C(F)(F)F)n(C)c2Cl)c(F)cc1Cl [Compound 14, 3-[4-chloro-2-fluoro-5-(2-propinyloxy)phenyl]-2,4-dichloro-1-methyl-5-trifluoromethyl pyrrole]
5: Herbicidal activity in post-emerqence, AT (Abutilon theofrasti (AT)) | Herbicidal activity in post-emerqence, AR [1] | Herbicidal activity in post-emerqence, CA (Chenopodium album (CA)) | Herbicidal activity in post-emerqence, CS (Convolvulus sepium (CS)) | Herbicidal activity in post-emerqence, PO (Portulaca oleracea (PO)) | Herbicidal activity in post-emerqence, SN (Solanum nigrum (SN)) | Herbicidal activity in post-emerqence, IP (Ipomea purpurea (IP))

CCOC(=O)COc1cc(-c2c(Cl)c(C(F)(F)F)n(C)c2Cl)c(F)cc1Cl [Compound 15, ethyl [2-chloro-5-(2,4-dichloro-1-methyl-5-trifluoro methylpyrrol-3-yl)-4-fluorophenoxy]acetate]
5: Herbicidal activity in post-emerqence, AT (Abutilon theofrasti (AT)) | Herbicidal activity in post-emerqence, AR [1] | Herbicidal activity in post-emerqence, CA (Chenopodium album (CA)) | Herbicidal activity in post-emerqence, CS (Convolvulus sepium (CS)) | Herbicidal activity in post-emerqence, PO (Portulaca oleracea (PO)) | Herbicidal activity in post-emerqence, SN (Solanum nigrum (SN)) | Herbicidal activity in post-emerqence, IP (Ipomea purpurea (IP))

C#CCOc1cc(-c2c(Br)c(C(F)(F)F)n(C)c2Cl)c(F)cc1Cl [Compound 17, 4-bromo-3-[4-chloro-2-fluoro-5-(2-propinyloxy)phenyl]-2-chloro-1-methyl-5-trifluoromethyl pyrrole]
5: Herbicidal activity in post-emerqence, AT (Abutilon theofrasti (AT)) | Herbicidal activity in post-emerqence, AR [1] | Herbicidal activity in post-emerqence, CA (Chenopodium album (CA)) | Herbicidal activity in post-emerqence, CS (Convolvulus sepium (CS)) | Herbicidal activity in post-emerqence, PO (Portulaca oleracea (PO)) | Herbicidal activity in post-emerqence, SN (Solanum nigrum (SN)) | Herbicidal activity in post-emerqence, IP (Ipomea purpurea (IP))

CCOC(=O)COc1cc(-c2c(Br)c(C(F)(F)F)n(C)c2Cl)c(F)cc1Cl [Compound 18, ethyl-5-(4-bromo-2-chloro-1-methyl-5-trifluoromethylpyrrol-3-yl)-2-chloro-4-fluorophenoxyacetate]
5: Herbicidal activity in post-emerqence, AT (Abutilon theofrasti (AT)) | Herbicidal activity in post-emerqence, AR [1] | Herbicidal activity in post-emerqence, CA (Chenopodium album (CA)) | Herbicidal activity in post-emerqence, CS (Convolvulus sepium (CS)) | Herbicidal activity in post-emerqence, PO (Portulaca oleracea (PO)) | Herbicidal activity in post-emerqence, SN (Solanum nigrum (SN)) | Herbicidal activity in post-emerqence, IP (Ipomea purpurea (IP))
